{"source": "patent US10765114B2", "about": "“4-amino-6-(pyridyl and 2-substitutedphenyl)-picolinates and 6-amino-2-(pyridyl and 2-substitutedphenyl)-pyrimidine-4-carboxylates and their use as herbicides” (Dow AgroSciences LLC, priority 2013, dated 2020)"}
{"tested_on": "Key Grass and Sedge Weeds as well as Grass Crops", "assay": "Post-Emergent Test II (Table 6)", "format": "in vivo", "details": "post-emergence, 336 h, CYPSS, 70 g ai/ha, 14 days after application, read-out: Visual Growth Reduction (%) 14 Days After Application CYPSS", "in_short": "(§1)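 Visual injury ratings (0 = no injury, 100 = complete kill) were taken 14 days after treatment relative to untreated plants. Seedlings at the first or second true leaf stage received an overhead spray at 187 L/ha, and solvent-blank sprayed plants served as controls.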", "units": {"pest or weed control at 70 g/ha": "%"}}
{"compound": "Nc1c(F)c(-c2ccc(C(F)F)nc2)nc(C(=O)O)c1Cl", "note": "[Compound 27, 4-amino-5-chloro-6′-(difluoromethyl)-3-fluoro-[2,3′-bipyridine]-6-carboxylic acid]", "pest or weed control at 70 g/ha": "95 to 100"}
{"tested_on": "Key Grass and Sedge Weeds as well as Grass Crops", "assay": "Post-Emergent Test II (Table 6)", "format": "in vivo", "details": "post-emergence, 336 h, CYPSS, 140 g ai/ha, 14 days after application, read-out: Visual Growth Reduction (%) 14 Days After Application CYPSS", "in_short": "as §1", "units": {"pest or weed control at 140 g/ha": "%"}}
{"compound": "Nc1c(F)c(-c2ccc(C(F)F)nc2)nc(C(=O)O)c1Cl", "note": "[Compound 27, 4-amino-5-chloro-6′-(difluoromethyl)-3-fluoro-[2,3′-bipyridine]-6-carboxylic acid]", "pest or weed control at 140 g/ha": "95 to 100"}
{"tested_on": "Key Grass and Sedge Weeds as well as Grass Crops", "assay": "Post-Emergent Test II (Table 6)", "format": "in vivo", "details": "post-emergence, 336 h, DIGSA: crabgrass (Digitaria sanguinalis), 70 g ai/ha, 14 days after application, read-out: Visual Growth Reduction (%) 14 Days After Application DIGSA", "in_short": "as §1", "units": {"pest or weed control at 70 g/ha": "%"}}
{"compound": "Nc1c(F)c(-c2ccc(C(F)F)nc2)nc(C(=O)O)c1Cl", "note": "[Compound 27, 4-amino-5-chloro-6′-(difluoromethyl)-3-fluoro-[2,3′-bipyridine]-6-carboxylic acid]", "pest or weed control at 70 g/ha": "75 to 84"}
{"tested_on": "Key Grass and Sedge Weeds as well as Grass Crops", "assay": "Post-Emergent Test II (Table 6)", "format": "in vivo", "details": "post-emergence, 336 h, DIGSA: crabgrass (Digitaria sanguinalis), 140 g ai/ha, 14 days after application, read-out: Visual Growth Reduction (%) 14 Days After Application DIGSA", "in_short": "as §1", "units": {"pest or weed control at 140 g/ha": "%"}}
{"compound": "Nc1c(F)c(-c2ccc(C(F)F)nc2)nc(C(=O)O)c1Cl", "note": "[Compound 27, 4-amino-5-chloro-6′-(difluoromethyl)-3-fluoro-[2,3′-bipyridine]-6-carboxylic acid]", "pest or weed control at 140 g/ha": "85 to 94"}
{"tested_on": "Key Grass and Sedge Weeds as well as Grass Crops", "assay": "Post-Emergent Test II (Table 6)", "format": "in vivo", "details": "post-emergence, 336 h, ECHSS, 70 g ai/ha, 14 days after application, read-out: Visual Growth Reduction (%) 14 Days After Application ECHSS", "in_short": "as §1", "units": {"pest or weed control at 70 g/ha": "%"}}
{"compound": "Nc1c(F)c(-c2ccc(C(F)F)nc2)nc(C(=O)O)c1Cl", "note": "[Compound 27, 4-amino-5-chloro-6′-(difluoromethyl)-3-fluoro-[2,3′-bipyridine]-6-carboxylic acid]", "pest or weed control at 70 g/ha": "85 to 94"}
{"tested_on": "Key Grass and Sedge Weeds as well as Grass Crops", "assay": "Post-Emergent Test II (Table 6)", "format": "in vivo", "details": "post-emergence, 336 h, ECHSS, 140 g ai/ha, 14 days after application, read-out: Visual Growth Reduction (%) 14 Days After Application ECHSS", "in_short": "as §1", "units": {"pest or weed control at 140 g/ha": "%"}}
{"compound": "Nc1c(F)c(-c2ccc(C(F)F)nc2)nc(C(=O)O)c1Cl", "note": "[Compound 27, 4-amino-5-chloro-6′-(difluoromethyl)-3-fluoro-[2,3′-bipyridine]-6-carboxylic acid]", "pest or weed control at 140 g/ha": "85 to 94"}
{"tested_on": "Key Grass and Sedge Weeds as well as Grass Crops", "assay": "Post-Emergent Test II (Table 6)", "format": "in vivo", "details": "post-emergence, 336 h, ORYSS (crop), 70 g ai/ha, 14 days after application, read-out: Visual Growth Reduction (%) 14 Days After Application ORYSS", "in_short": "as §1", "units": {"pest or weed control at 70 g/ha": "%"}}
{"compound": "Nc1c(F)c(-c2ccc(C(F)F)nc2)nc(C(=O)O)c1Cl", "note": "[Compound 27, 4-amino-5-chloro-6′-(difluoromethyl)-3-fluoro-[2,3′-bipyridine]-6-carboxylic acid]", "pest or weed control at 70 g/ha": "0 to 29"}
{"tested_on": "Key Grass and Sedge Weeds as well as Grass Crops", "assay": "Post-Emergent Test II (Table 6)", "format": "in vivo", "details": "post-emergence, 336 h, ORYSS (crop), 140 g ai/ha, 14 days after application, read-out: Visual Growth Reduction (%) 14 Days After Application ORYSS", "in_short": "as §1", "units": {"pest or weed control at 140 g/ha": "%"}}
{"compound": "Nc1c(F)c(-c2ccc(C(F)F)nc2)nc(C(=O)O)c1Cl", "note": "[Compound 27, 4-amino-5-chloro-6′-(difluoromethyl)-3-fluoro-[2,3′-bipyridine]-6-carboxylic acid]", "pest or weed control at 140 g/ha": "0 to 29"}
{"tested_on": "Key Grass and Sedge Weeds as well as Grass Crops", "assay": "Post-Emergent Test II (Table 6)", "format": "in vivo", "details": "post-emergence, 336 h, SETFA: giant foxtail (Setaria faberi), 70 g ai/ha, 14 days after application, read-out: Visual Growth Reduction (%) 14 Days After Application SETFA", "in_short": "as §1", "units": {"pest or weed control at 70 g/ha": "%"}}
{"compound": "Nc1c(F)c(-c2ccc(C(F)F)nc2)nc(C(=O)O)c1Cl", "note": "[Compound 27, 4-amino-5-chloro-6′-(difluoromethyl)-3-fluoro-[2,3′-bipyridine]-6-carboxylic acid]", "pest or weed control at 70 g/ha": "75 to 84"}
{"tested_on": "Key Grass and Sedge Weeds as well as Grass Crops", "assay": "Post-Emergent Test II (Table 6)", "format": "in vivo", "details": "post-emergence, 336 h, SETFA: giant foxtail (Setaria faberi), 140 g ai/ha, 14 days after application, read-out: Visual Growth Reduction (%) 14 Days After Application SETFA", "in_short": "as §1", "units": {"pest or weed control at 140 g/ha": "%"}}
{"compound": "Nc1c(F)c(-c2ccc(C(F)F)nc2)nc(C(=O)O)c1Cl", "note": "[Compound 27, 4-amino-5-chloro-6′-(difluoromethyl)-3-fluoro-[2,3′-bipyridine]-6-carboxylic acid]", "pest or weed control at 140 g/ha": "85 to 94"}
{"tested_on": "Key Grass and Sedge Weeds as well as Grass Crops", "assay": "Post-Emergent Test II (Table 6)", "format": "in vivo", "details": "post-emergence, 336 h, SORVU: grain sorghum (Sorghum vulgare), 70 g ai/ha, 14 days after application, read-out: Visual Growth Reduction (%) 14 Days After Application SORVU", "in_short": "as §1", "units": {"pest or weed control at 70 g/ha": "%"}}
{"compound": "Nc1c(F)c(-c2ccc(C(F)F)nc2)nc(C(=O)O)c1Cl", "note": "[Compound 27, 4-amino-5-chloro-6′-(difluoromethyl)-3-fluoro-[2,3′-bipyridine]-6-carboxylic acid]", "pest or weed control at 70 g/ha": "75 to 84"}
{"tested_on": "Key Grass and Sedge Weeds as well as Grass Crops", "assay": "Post-Emergent Test II (Table 6)", "format": "in vivo", "details": "post-emergence, 336 h, SORVU: grain sorghum (Sorghum vulgare), 140 g ai/ha, 14 days after application, read-out: Visual Growth Reduction (%) 14 Days After Application SORVU", "in_short": "as §1", "units": {"pest or weed control at 140 g/ha": "%"}}
{"compound": "Nc1c(F)c(-c2ccc(C(F)F)nc2)nc(C(=O)O)c1Cl", "note": "[Compound 27, 4-amino-5-chloro-6′-(difluoromethyl)-3-fluoro-[2,3′-bipyridine]-6-carboxylic acid]", "pest or weed control at 140 g/ha": "85 to 94"}
{"tested_on": "Key Grass and Sedge Weeds as well as Grass Crops", "assay": "Post-Emergent Test II (Table 6)", "format": "in vivo", "details": "post-emergence, 336 h, TRZSS (crop), 70 g ai/ha, 14 days after application, read-out: Visual Growth Reduction (%) 14 Days After Application TRZSS", "in_short": "as §1", "units": {"pest or weed control at 70 g/ha": "%"}}
{"compound": "Nc1c(F)c(-c2ccc(C(F)F)nc2)nc(C(=O)O)c1Cl", "note": "[Compound 27, 4-amino-5-chloro-6′-(difluoromethyl)-3-fluoro-[2,3′-bipyridine]-6-carboxylic acid]", "pest or weed control at 70 g/ha": "45 to 59"}
{"tested_on": "Key Grass and Sedge Weeds as well as Grass Crops", "assay": "Post-Emergent Test II (Table 6)", "format": "in vivo", "details": "post-emergence, 336 h, TRZSS (crop), 140 g ai/ha, 14 days after application, read-out: Visual Growth Reduction (%) 14 Days After Application TRZSS", "in_short": "as §1", "units": {"pest or weed control at 140 g/ha": "%"}}
{"compound": "Nc1c(F)c(-c2ccc(C(F)F)nc2)nc(C(=O)O)c1Cl", "note": "[Compound 27, 4-amino-5-chloro-6′-(difluoromethyl)-3-fluoro-[2,3′-bipyridine]-6-carboxylic acid]", "pest or weed control at 140 g/ha": "60 to 74"}
{"tested_on": "Key Grass and Sedge Weeds as well as Grass Crops", "assay": "Post-Emergent Test II (Table 6)", "format": "in vivo", "details": "post-emergence, 336 h, ZEAMX: maize, corn (Zea mays), 70 g ai/ha, 14 days after application, read-out: Visual Growth Reduction (%) 14 Days After Application ZEAMX", "in_short": "as §1", "units": {"pest or weed control at 70 g/ha": "%"}}
{"compound": "Nc1c(F)c(-c2ccc(C(F)F)nc2)nc(C(=O)O)c1Cl", "note": "[Compound 27, 4-amino-5-chloro-6′-(difluoromethyl)-3-fluoro-[2,3′-bipyridine]-6-carboxylic acid]", "pest or weed control at 70 g/ha": "60 to 74"}
